According to publication PMC4300089, “Structure-Guided Design of Selective Epac1 and Epac2 Agonists” (PLoS Biology, 2015):
Where two headings read alike, the source gives them in different places.

What was measured:
Epac1 [1] = target: T1, Epac1 (Homo sapiens, UniProt O95398); design: method as in PMID 12888551; settings: footnote c, see also ref 13; cited from earlier work
T1 construct: made in house
T1 sequence (O95398 150-881 isoform O95398-3): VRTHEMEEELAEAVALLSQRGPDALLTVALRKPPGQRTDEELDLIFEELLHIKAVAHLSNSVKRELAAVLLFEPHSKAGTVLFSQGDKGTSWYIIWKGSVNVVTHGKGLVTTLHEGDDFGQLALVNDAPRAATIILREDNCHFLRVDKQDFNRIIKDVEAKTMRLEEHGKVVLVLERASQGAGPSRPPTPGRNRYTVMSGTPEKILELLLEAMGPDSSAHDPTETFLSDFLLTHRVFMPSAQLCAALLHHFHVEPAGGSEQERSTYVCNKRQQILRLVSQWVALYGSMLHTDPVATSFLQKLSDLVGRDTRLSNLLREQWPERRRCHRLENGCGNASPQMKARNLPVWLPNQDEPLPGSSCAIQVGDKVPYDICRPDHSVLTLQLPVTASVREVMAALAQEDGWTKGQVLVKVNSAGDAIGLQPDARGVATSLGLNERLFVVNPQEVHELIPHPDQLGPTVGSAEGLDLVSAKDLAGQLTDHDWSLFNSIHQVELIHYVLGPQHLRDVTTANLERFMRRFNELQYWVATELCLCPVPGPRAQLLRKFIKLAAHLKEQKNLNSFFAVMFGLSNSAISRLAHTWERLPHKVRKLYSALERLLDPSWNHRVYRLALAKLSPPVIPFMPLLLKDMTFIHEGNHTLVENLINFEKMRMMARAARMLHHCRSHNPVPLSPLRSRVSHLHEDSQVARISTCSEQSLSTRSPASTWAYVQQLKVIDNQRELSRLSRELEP

PKA-Iβ = target: T2, PKA-Iβ (Homo sapiens, UniProt P31321); test: PKA activity assay, PKA-Iβ; type: biochemical; settings: for A (PKA activity): PKAIβ
T2 construct: made in house
Description: (§1) The recombinant human PKA catalytic subunit (Cα1) and the four human PKA regulatory subunits (RIα, RIβ, RIIα, RIIβ) were expressed, purified, and characterized as described. […] PKA holoenzymes were formed by mixing the R- and C-subunit at a molar ratio of 1.2:1 and extensive dialysis against 20 mM MOPS (pH 7.0), 150 mM NaCl, 2.5 mM β-mercaptoethanol, supplemented with 1 mM ATP and 10 mM MgCl2 for PKA-I at 4°C overnight. PKA holoenzymes were used at about 20 nM for the activation assay. The apparent activation constants (Kact) were determined by fitting the concentration-dependent activity to a sigmoid dose-response model.

PKA-IIβ = target: T3, PKA-IIβ (Homo sapiens, UniProt P31323); test: PKA activity assay, PKA-IIβ; type: biochemical; settings: for A (PKA activity): PKAIIβ
T3 construct: made in house
Description: as §1

PKA-IIα = target: T4, PKA-IIα (Homo sapiens, UniProt P13861); test: PKA activity assay, PKA-IIα; type: biochemical; settings: for A (PKA activity): PKAIIα
T4 construct: made in house
Description: as §1

PKA-Iα = target: T5, PKA-Iα (Homo sapiens, UniProt P10644); test: PKA activity assay (coupled spectrophotometric, Kemptide), PKA-Iα; type: biochemical; settings: for A (PKA activity): PKAIα
T5 construct: made in house
Description: as §1

Epac1 [2] = target: T1, Epac1; test: Epac activation assay, Epac1; type: biochemical

T3 sequence (P31323 whole entry): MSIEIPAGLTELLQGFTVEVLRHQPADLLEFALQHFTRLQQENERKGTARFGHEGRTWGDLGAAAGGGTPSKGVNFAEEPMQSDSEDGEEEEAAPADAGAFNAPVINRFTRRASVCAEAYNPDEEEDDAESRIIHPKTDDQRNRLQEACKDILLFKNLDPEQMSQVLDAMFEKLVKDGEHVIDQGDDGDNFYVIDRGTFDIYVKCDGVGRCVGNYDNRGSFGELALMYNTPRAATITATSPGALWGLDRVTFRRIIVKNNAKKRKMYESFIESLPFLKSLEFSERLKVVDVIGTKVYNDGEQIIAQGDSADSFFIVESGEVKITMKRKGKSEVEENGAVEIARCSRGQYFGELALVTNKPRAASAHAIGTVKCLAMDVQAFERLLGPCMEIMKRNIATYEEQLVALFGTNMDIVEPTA
T2 sequence (P31321 whole entry): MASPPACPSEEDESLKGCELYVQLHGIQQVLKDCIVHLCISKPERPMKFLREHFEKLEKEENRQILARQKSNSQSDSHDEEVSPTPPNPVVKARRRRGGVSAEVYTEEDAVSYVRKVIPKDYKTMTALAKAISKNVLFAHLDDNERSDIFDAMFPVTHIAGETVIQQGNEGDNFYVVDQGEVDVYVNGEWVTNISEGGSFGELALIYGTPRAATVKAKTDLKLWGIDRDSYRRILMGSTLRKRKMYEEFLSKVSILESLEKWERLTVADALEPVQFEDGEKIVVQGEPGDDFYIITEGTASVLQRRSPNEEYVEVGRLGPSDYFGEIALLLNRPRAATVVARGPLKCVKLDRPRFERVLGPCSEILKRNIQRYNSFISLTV
T5 sequence (P10644 whole entry): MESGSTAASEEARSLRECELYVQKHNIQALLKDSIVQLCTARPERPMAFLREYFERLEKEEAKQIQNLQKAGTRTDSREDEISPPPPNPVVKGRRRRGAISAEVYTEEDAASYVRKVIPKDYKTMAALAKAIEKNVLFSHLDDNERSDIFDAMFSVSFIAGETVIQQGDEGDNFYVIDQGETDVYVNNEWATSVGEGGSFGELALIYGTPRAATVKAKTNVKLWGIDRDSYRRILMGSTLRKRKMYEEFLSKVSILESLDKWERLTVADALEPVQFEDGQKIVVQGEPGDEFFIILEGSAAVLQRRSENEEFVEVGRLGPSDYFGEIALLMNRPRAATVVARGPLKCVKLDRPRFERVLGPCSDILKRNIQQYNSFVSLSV
T4 sequence (P13861 whole entry): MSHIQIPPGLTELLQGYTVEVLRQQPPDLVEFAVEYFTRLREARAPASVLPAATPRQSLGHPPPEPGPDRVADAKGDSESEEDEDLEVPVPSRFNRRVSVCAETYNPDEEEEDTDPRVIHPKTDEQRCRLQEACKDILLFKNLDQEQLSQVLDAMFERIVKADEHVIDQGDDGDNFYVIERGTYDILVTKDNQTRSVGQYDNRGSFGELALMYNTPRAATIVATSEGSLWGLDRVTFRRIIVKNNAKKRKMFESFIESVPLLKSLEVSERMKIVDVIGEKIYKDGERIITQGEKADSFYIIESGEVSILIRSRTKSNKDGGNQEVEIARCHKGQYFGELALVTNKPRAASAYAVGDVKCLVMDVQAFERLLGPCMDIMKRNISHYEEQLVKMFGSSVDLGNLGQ

Structure (SMILES): Nc1ncnc2c1nc(Sc1ccc(Cl)cc1)n2[C@@H]1O[C@@H]2COP(=O)(O)O[C@H]2[C@H]1O [L-026, 8-pCPT-cAMP]
- AC50 (Epac1 [1]): 900 nM

Structure (SMILES): Nc1ncnc2c1nc(SCc1ccccc1)n2[C@@H]1O[C@@H]2CO[P@](O)(=S)O[C@H]2[C@H]1O [S-220, Sp-8-BnT-cAMPS]
- Kact compared to cAMP (times higher) (PKA-Iβ; PKA-Iβ): three to eight times higher
- EC50 (PKA-Iβ; PKA-Iβ, read-out: Kact): 290 nM
- A (PKA activity) (PKA-Iβ; concentration 1 μM): 2.04E+01 U/mg
- A (PKA activity) (PKA-Iβ; concentration 1.00E+01 μM): 2.34E+01 U/mg
- A (PKA activity) (PKA-Iβ; concentration 1.00E-01 μM): 7.7375 U/mg
- A (PKA activity) (PKA-Iβ; concentration 1.00E-02 μM): 4.3125 U/mg
- A (PKA activity) (PKA-Iβ; concentration 1.00E-03 μM): 4.35 U/mg
- A (PKA activity) (PKA-Iβ; concentration 1.00E-05 μM): 4.525 U/mg
- A (PKA activity) (PKA-Iβ; concentration 1.70E-01 μM): 1.11E+01 U/mg
- A (PKA activity) (PKA-Iβ; concentration 2.50E+02 μM): 2.32E+01 U/mg
- A (PKA activity) (PKA-Iβ; concentration 2.50E-01 μM): 1.38E+01 U/mg
- A (PKA activity) (PKA-Iβ; concentration 5.00E-01 μM): 1.59E+01 U/mg
- Kact compared to cAMP (times higher / affinity reduced) (PKA-IIβ; PKA-IIβ): comparable affinities
- EC50 (PKA-IIβ; PKA-IIβ, read-out: Kact): 210 nM
- A (PKA activity) (PKA-IIβ; concentration 1 μM): 1.92E+01 U/mg
- A (PKA activity) (PKA-IIβ; concentration 1.00E+01 μM): 2.49E+01 U/mg
- A (PKA activity) (PKA-IIβ; concentration 1.00E-01 μM): 1.08E+01 U/mg
- A (PKA activity) (PKA-IIβ; concentration 1.00E-02 μM): 5.378 U/mg
- A (PKA activity) (PKA-IIβ; concentration 1.00E-03 μM): 4.482 U/mg
- A (PKA activity) (PKA-IIβ; concentration 1.00E-04 μM): 4.9341 U/mg
- A (PKA activity) (PKA-IIβ; concentration 1.00E-05 μM): 2.8563 U/mg
- A (PKA activity) (PKA-IIβ; concentration 2.50E+02 μM): 2.44E+01 U/mg
- A (PKA activity) (PKA-IIβ; concentration 2.50E-01 μM): 1.60E+01 U/mg
- Kact compared to cAMP (times higher / affinity reduced) (PKA-IIα; PKA-IIα): three to eight times higher
- EC50 (PKA-IIα; PKA-IIα, read-out: Kact): 270 nM
- A (PKA activity) (PKA-IIα; concentration 1 μM): 1.74E+01 U/mg
- A (PKA activity) (PKA-IIα; concentration 1.00E+01 μM): 2.30E+01 U/mg
- A (PKA activity) (PKA-IIα; concentration 1.00E-01 μM): 1.09E+01 U/mg
- A (PKA activity) (PKA-IIα; concentration 1.00E-02 μM): 5.815 U/mg
- A (PKA activity) (PKA-IIα; concentration 1.00E-03 μM): 5.193 U/mg
- A (PKA activity) (PKA-IIα; concentration 1.00E-04 μM): 4.739 U/mg
- A (PKA activity) (PKA-IIα; concentration 1.00E-05 μM): 3.782 U/mg
- A (PKA activity) (PKA-IIα; concentration 2.50E+02 μM): 2.28E+01 U/mg
- A (PKA activity) (PKA-IIα; concentration 2.50E-01 μM): 1.40E+01 U/mg
- A (PKA activity) (PKA-IIα; concentration 2.50E-02 μM): 8.017 U/mg
- Kact compared to cAMP (times higher) (PKA-Iα; PKA-Iα): three to eight times higher
- EC50 (PKA-Iα; PKA-Iα, read-out: Kact): 290 nM
- A (PKA activity) (PKA-Iα; concentration 1 μM): 1.97E+01 U/mg
- A (PKA activity) (PKA-Iα; concentration 1.00E+01 μM): 2.59E+01 U/mg
- A (PKA activity) (PKA-Iα; concentration 1.00E-01 μM): 9.4227 U/mg
- A (PKA activity) (PKA-Iα; concentration 1.00E-02 μM): 3.6309 U/mg
- A (PKA activity) (PKA-Iα; concentration 1.00E-03 μM): 3.7632 U/mg
- A (PKA activity) (PKA-Iα; concentration 1.00E-05 μM): 3.6309 U/mg
- A (PKA activity) (PKA-Iα; concentration 2.50E+02 μM): 2.40E+01 U/mg
- A (PKA activity) (PKA-Iα; concentration 2.50E-01 μM): 1.33E+01 U/mg
- A (PKA activity) (PKA-Iα; concentration 5.00E+01 μM): 2.52E+01 U/mg
- kobs (Epac1 [2]; 0.01 μM compound): 1.6e-05 s⁻¹
- kobs (Epac1 [2]; 0.05 μM compound): 1.5e-05 s⁻¹
- kobs (Epac1 [2]; 0.08 μM compound): 1.6e-05 s⁻¹
- kobs (Epac1 [2]; 0.1 μM compound): 1.7e-05 s⁻¹
- kobs (Epac1 [2]; 0.2 μM compound): 1.7e-05 s⁻¹
- kobs (Epac1 [2]; 0.3 μM compound): 2e-05 s⁻¹
- kobs (Epac1 [2]; 0.5 μM compound): 2.2e-05 s⁻¹
- kobs (Epac1 [2]; 0.6 μM compound): 2.5e-05 s⁻¹
- kobs (Epac1 [2]; 0.7 μM compound): 2.7e-05 s⁻¹
- kobs (Epac1 [2]; 0.8 μM compound): 2.8e-05 s⁻¹
- kobs (Epac1 [2]; 1 μM compound): 4.3e-05 s⁻¹
- kobs (Epac1 [2]; 2 μM compound): 5.8e-05 s⁻¹
- kobs (Epac1 [2]; 3 μM compound): 7.9e-05 s⁻¹
- kobs (Epac1 [2]; 4 μM compound): 9.2e-05 s⁻¹
- kobs (Epac1 [2]; 5 μM compound): 0.000102 s⁻¹
- kobs (Epac1 [2]; 6 μM compound): 0.000128 s⁻¹
- kobs (Epac1 [2]; 7 μM compound): 0.000149 s⁻¹
- kobs (Epac1 [2]; 8 μM compound): 0.000153 s⁻¹
- kobs (Epac1 [2]; 10 μM compound): 0.000213 s⁻¹
- kobs (Epac1 [2]; 20 μM compound): 0.000263 s⁻¹
- kobs (Epac1 [2]; 30 μM compound): 0.000312 s⁻¹
- kobs (Epac1 [2]; 40 μM compound): 0.00033 s⁻¹
- kobs (Epac1 [2]; 50 μM compound): 0.000328 s⁻¹
- kobs (Epac1 [2]; 60 μM compound): 0.000336 s⁻¹
- kobs (Epac1 [2]; 70 μM compound): 0.000338 s⁻¹
- kobs (Epac1 [2]; 80 μM compound): 0.000331 s⁻¹
- AC50 (Epac1 [2]; Epac1): 13000 nM
- ability to reach half-maximal cAMP activity (Epac1 [2]; Epac1): cannot activate Epac1 to the level of half-maximal cAMP-activity
- Rel. kmax (Epac1 [2]; Epac1, maximal activity relative to cAMP): 0.3
